What is called Ki is the equilibrium dissociation constant of an inhibitor or competing ligand from its target. By IC50 is commonly meant the concentration at which inhibition is half-maximal.

Results on six compounds are retold here after PMC4778124, “A continuous sirtuin activity assay without any coupling to enzymatic or chemical reactions” (Scientific Reports, 2016).

Each structure is given as a SMILES string. Counter-ions that a name gives are not always drawn. Like-named read-outs stand apart in the source and are kept apart here. Starred links: 1 amine or outer side, 2 acyl side, 3 side chain; linkers in the order of their positions; H or OH if unused. Positions of bridges follow the written chain, without caps; N, C: chain ends. Non-standard residues stand in square brackets, D forms with d. Residues, ends and D or L forms follow the SMILES beside them. *: point of attachment. X1 = CCCCCCCCCCCCCC(=S)N(C)CCCC[C@H](N[*:1])C(=O)[*:2]; Tfa = O=C(C(F)(F)F)*

The target in assay [1] is T1, Sirt6 (Homo sapiens, UniProt Q8N6T7).
T1 construct: His-tag; made in house; host or cells: E. coli BL21 DE3
T1 sequence (Q8N6T7 whole entry): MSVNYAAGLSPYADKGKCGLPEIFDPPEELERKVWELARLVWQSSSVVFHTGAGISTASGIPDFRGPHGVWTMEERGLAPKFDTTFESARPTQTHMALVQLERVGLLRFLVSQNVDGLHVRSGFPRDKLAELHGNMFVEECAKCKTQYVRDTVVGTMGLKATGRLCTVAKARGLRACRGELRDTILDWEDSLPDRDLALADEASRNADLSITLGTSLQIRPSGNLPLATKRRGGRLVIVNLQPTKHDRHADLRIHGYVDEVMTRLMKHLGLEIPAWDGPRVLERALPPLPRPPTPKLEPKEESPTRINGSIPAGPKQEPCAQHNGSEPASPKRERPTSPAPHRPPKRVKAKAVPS
The assay can be described thus: Ki determination with substrate 3, 96-well MTP fluorescence reader. The format is biochemical. Particulars: for type of inhibition with respect to the peptide substrate: Sirt6, substrate 3. Here is the method:
All measurements were done in duplicates.
Supplementary Figure S13. […] Data are presented as mean ± s.d. (n=2) and lines represent the Michaelis-Menten-plot (left) and secondary plots (right). The apparent KM or Vmax^app-1 values from v/[S] characteristics were plotted against the corresponding inhibitor concentration.
Supplementary Figure S14. […] The reactions were performed with 0.5 µM Sirt6 and either 500 µM NAD^+ and varying concentrations of 3 (2-100 µM). […] Data are presented as mean ± s.d. (n=2) and lines represent the Michaelis-Menten-plot (left) and secondary plots (right). The apparent Vmax^app-1 values from v/[S] characteristics were plotted against the corresponding inhibitor concentration.
Supplementary Figure S15. Kinetic characteristics for sirtuin inhibitor 8. The reactions were performed with 0.01 µM Sirt2 /0.1 µM Sirt3 /0.5 µM Sirt6 and 500 µM NAD^+ and varying concentrations of 3 (0.07-100 µM). […] Data are presented as mean ± s.d. (n=2) and lines represent the Michaelis-Menten-plot (left) and secondary plots (right). The apparent Vmax^app-1 values from v/[S] characteristics were plotted against the corresponding inhibitor concentration.

The subject of assay [2] is Sirt6. More on the design: method as in PMID 25004411. Particulars: cited from earlier work; for inhibition of enzymatic activity: 200 μM concentration.
Assay [3] deals with T2, Sirt2 (Homo sapiens, UniProt Q8IXJ6).
T2 construct: made in house
T2 sequence (Q8IXJ6 1-389): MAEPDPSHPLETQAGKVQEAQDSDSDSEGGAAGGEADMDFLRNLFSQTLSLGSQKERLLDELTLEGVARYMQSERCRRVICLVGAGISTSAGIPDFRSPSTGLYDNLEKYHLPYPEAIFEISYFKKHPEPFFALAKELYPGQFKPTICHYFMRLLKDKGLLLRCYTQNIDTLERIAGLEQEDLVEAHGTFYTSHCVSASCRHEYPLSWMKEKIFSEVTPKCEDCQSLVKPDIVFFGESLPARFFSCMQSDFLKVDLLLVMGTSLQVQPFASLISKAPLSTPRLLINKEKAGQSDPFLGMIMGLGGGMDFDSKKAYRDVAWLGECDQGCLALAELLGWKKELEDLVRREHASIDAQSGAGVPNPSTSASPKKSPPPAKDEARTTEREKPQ
Description: Ki determination with substrate 3, 96-well MTP fluorescence reader. The assay is classed as biochemical. Here is the method:
The microtiter plate fluorescence measurements were performed on a Tecan Infinite M200 microplate reader (Maennedorf, Switzerland) at λEx = 320 nm and λEm = 408 nm (lag time 9 μs, integration time […], gain 160, 170 or 182). The reactions (total volume 100 μl) were measured in black low-binding 96-well microtiter plates (NUNC). Assay-buffer, 500 μM NAD^+ and 0.07–200 μM peptide substrate were pre-incubated at 37 °C for 5 min. The reaction was started by adding human sirtuin (0.01–0.5 μM). The signals were converted into product concentration via calibration lines and the resulting data were evaluated as described above (single fluorescence measurement). The determination for the kinetic constants of NAD^+ was performed in the same way, except that the peptide concentration was fixed (5, 25 or 200 μM) and the NAD^+ concentration was varied (10–1500 μM). All measurements were done in duplicates. The reaction mixture for the calibration lines was prepared as described for the single fluorescence measurements. […] The resulting plots were analyzed by a competitive inhibition and non-competitive inhibition model using the program Sigma Plot 8. The linear regression of the apparent KM-values against the corresponding inhibitor concentration yielded the inhibitor constant Ki for competitive inhibition. The Ki for non-competitive inhibition was determined by linear regression of 1/apparent Vmax against the corresponding inhibitor concentration. The negative Ki value can be determined as intersection with the X-axis from these plots.
Supplementary Figure S15. Kinetic characteristics for sirtuin inhibitor 8. The reactions were performed with 0.01 µM Sirt2 /0.1 µM Sirt3 /0.5 µM Sirt6 and 500 µM NAD^+ and varying concentrations of 3 (0.07-100 µM). […] The negative Ki value can be determined as intersection with the X-axis from the Vmax^app-1/I plot.
Supplementary Figure S16. […] The negative Ki value can be determined as intersection with the X-axis from the Vmax^app-1/I plot.
Supplementary Figure S17. […] The negative Ki value can be determined as intersection with the X-axis from the Vmax^app-1/I plot.

The target in assay [4] is T1, Sirt6. Description: Isomer specific inhibition by thioxo peptides, HPLC. The format is biochemical. To be noted: substrate 2a. The method, then:
After 30 min incubation at 20 °C reaction was stopped using 10% TFA solution. Inhibitor solutions were irradiated at 254 nm for 5 min. Separated isomers were applied in concentrations from 1 to 10 μM. The influence of cis content on sirtuin inhibition using fluorescence spectrometer was determined with 500 μM NAD^+, 5 μM 3, 0.1 μM Sirt2 and 0.1 μM 9. Reactions were done at 20 °C with 9 in GS and PSS (after 5 min irradiation at 254 nm). 9 in PSS was applied immediately after irradiation (transfer time ~5 s) and started directly by adding sirtuin. Reactions were measured within 1 min to avoid re-isomerization.
Supplementary Figure S36. Determination of IC50 value of 8 for Sirt6 in GS (?) and PSS (π). Data were fitted with U(%) = Umin(%) + (Umax(%) – Umin(%))/(1+10^(x-logIC50)) with U(%) percental turmover of substrate 2a; Umin(%) lowest turnover of substrate; Umax(%) maximal turnover of substrate (n=3).
Supplementary Figure S37. Inhibition of Sirt6 by 8 (?) and 9 (π).Data were fitted with U(%) = Umin(%) + (Umax(%) – Umin(%))/(1+10^(x-logIC50)) with U(%) percental turmover of substrate; Umin(%) lowest turnover of substrate 2a; Umax(%) maximal turnover of substrate (n=3).
Supplementary Figure S38. Determination of IC50 of 9 for Sirt6 with 72.4 % cis- (π) and 70.3 % (?) trans-content. Measurements were done with 10 µM peptide substrate (big figure) or 30 µM (small figure). Data were fitted with U(%) = Umin(%) + (Umax(%) – Umin(%))/(1+10^(x-logIC50)) with U(%) percental turmover of substrate 2a; Umin(%) lowest turnover of substrate; Umax(%) maximal turnover of substrate (n=3).

For assay [5], the target named is T3, Sirt1 (Homo sapiens, UniProt Q96EB6).
T3 construct: made in house
T3 sequence (Q96EB6 1-747): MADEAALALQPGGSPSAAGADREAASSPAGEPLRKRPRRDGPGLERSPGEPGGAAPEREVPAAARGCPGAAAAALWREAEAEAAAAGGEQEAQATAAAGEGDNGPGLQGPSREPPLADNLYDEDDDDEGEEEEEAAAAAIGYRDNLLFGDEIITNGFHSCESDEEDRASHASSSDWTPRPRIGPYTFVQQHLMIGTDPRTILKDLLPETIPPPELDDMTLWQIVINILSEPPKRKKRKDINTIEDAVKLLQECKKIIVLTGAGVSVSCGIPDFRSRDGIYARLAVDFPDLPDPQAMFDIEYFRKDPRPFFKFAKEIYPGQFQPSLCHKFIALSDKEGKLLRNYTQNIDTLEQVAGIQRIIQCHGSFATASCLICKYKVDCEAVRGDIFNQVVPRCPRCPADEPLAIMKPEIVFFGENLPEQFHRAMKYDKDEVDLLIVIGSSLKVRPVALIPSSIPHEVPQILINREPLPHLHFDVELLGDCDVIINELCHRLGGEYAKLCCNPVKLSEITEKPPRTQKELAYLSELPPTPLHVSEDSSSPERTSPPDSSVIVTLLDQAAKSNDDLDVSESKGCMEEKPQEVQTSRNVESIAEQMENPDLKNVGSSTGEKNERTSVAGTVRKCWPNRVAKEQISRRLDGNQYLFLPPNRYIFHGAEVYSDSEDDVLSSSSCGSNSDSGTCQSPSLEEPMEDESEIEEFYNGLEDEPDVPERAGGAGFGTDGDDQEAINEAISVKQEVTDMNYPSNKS
Description: HPLC based activity assay, influence of resveratrol on Sirt1 mediated deacylation of 3. To be noted: 0-100 µM resveratrol; Sirt1 0.5 µM, 3 20 µM, NAD+ 500 µM, 60 minutes at 37°C. The format is biochemical. Here is the method: For the determination of kinetic constants for all sirtuin mediated reactions solutions containing 20 mM TRIS/HCl pH 7.8, 150 mM NaCl, 5 mM MgCl2 (assay-buffer), 500 μM NAD^+ and varying substrate concentrations (0.5–100 μM) were used. Deacylation was started by adding human sirtuin to reach a final concentration of 0.01–0.5 μM. Enzyme-catalyzed reaction was stopped using TFA (1% final concentration) after 1 min to 180 min of incubation at 37 °C depending on substrate reactivity. The cleavage rate of the different TNFα peptide derivatives was analyzed using analytical reversed phase HPLC. 40 to 80 μl of compounds or reaction solutions were injected and separated using a linear gradient from 5% to 95% solvent B within 6min. The product and substrate peaks were quantified using absorbance at 220 nm or 365 nm (absorption of 3-Nitrotyrosyl moiety). The peak areas were integrated and converted to initial velocity rates calculated from the ratio of product area to total peak area. Linear regression of conversions plotted against time yielded reaction rates in μM/min (relative conversion below 20% of substrate). […]
Supplementary Figure S4. […] Reaction was stopped using TFA (1% final concentration) and the consumption of 3 was analyzed using HPLC. […]

In assay [1] (Sirt6 0.5 µM, varying substrate 3, 500 µM NAD+ (saturating)), `NC(=O)C1CCCc2c1[nH]c1ccc(Cl)cc21` (centres unmarked) [Ex-527] displayed a Ki of 100 ± 11 µM. In addition, the “type of inhibition with respect to the peptide substrate” value in assay [1] is given as “non-competitive”. Moreover, the “inhibition of enzymatic activity” value in assay [2] is on record as 56%.
`NC(=O)c1cccnc1` [NAM, nicotinamide]: the IC50 in assay [2] was […].
Take `O=c1c(O)c(-c2ccc(O)c(O)c2)oc2cc(O)cc(O)c12` [Quercetin]: the “type of inhibition with respect to the peptide substrate” value in assay [1] is listed as “non-competitive”. Also, the “inhibition of enzymatic activity” value in assay [2] is given as 52%.
In the case of `CC(C)[C@@H]1NC(=O)[C@H](Cc2c[nH]cn2)NC(=O)[C@H](Cc2ccc(O)cc2)NC(=O)[C@H]([C@@H](C)O)NC(=O)[C@H](Cc2c[nH]cn2)NC(=O)[C@H](Cc2ccc(O)cc2)NC(=O)CSC[C@@H](C(N)=O)NC(=O)[C@H](Cc2ccc(O)cc2)NC(=O)[C@H](Cc2ccc(O)cc2)NC(=O)[C@H](CC(N)=O)NC(=O)[C@H]([C@@H](C)O)NC(=O)[C@H](CCCNC(=N)N)NC(=O)[C@H](CCCNC(=N)N)NC(=O)[C@H](CCCCNC(=O)C(F)(F)F)NC1=O` [S2iL5] ({CH2CO}-YHTYHVK(Tfa)RRTNYYC-NH2; thioether N-14), the Ki in assay [3] (Sirt2 0.01 µM, varying substrate 3, 500 µM NAD+, read-out: Ki (3)) was found to be 0.6 ± 0.2 µM; in assay [3] (Sirt2, substrate 3, read-out: Ki-value), 0.56 µM.
Turning to `CCCCCCCCCCCCCC(=S)N(C)CCCC[C@H](NC(=O)[C@H](CCCCN)NC(=O)[C@@H]1CCCN1C(=O)[C@H](CC(C)C)NC(=O)[C@H](C)NC(=O)[C@H](CCC(=O)O)NC(C)=O)C(=O)N[C@H](C(=O)NCC(=O)NCC(N)=O)[C@@H](C)O` [compound 9] (Ac-EALPK[X1]TGG-NH2), the values for the IC50 in assay [4] (inhibitor with 29.7% cis isomer (HPLC-separated)) and in assay [4] (inhibitor with 72.4% cis isomer (HPLC-separated)) were 1.7 ± 0.5 µM and 0.6 ± 0.1 µM, respectively.
As to `Oc1ccc(/C=C/c2cc(O)cc(O)c2)cc1` [resveratrol], in assay [5], the “influence on Sirt1 mediated deacylation of 3” value is listed as “no significant influence”.
